From US7455990B2, “Method of extracting recombinant hexose oxidase” (priority 1999, dated 2008)
Marks after values point to notes of the source that are not given here.

Legend:
[1] = test system: cell suspension (HOX9910B); assay: Comparison between CTAB and other emulsifiers for extraction of HOX; assay type: cell-based, Hansenula polymorpha; details: 20 h, 25°C, control (cells and buffer) = 100
Experimental: Five mL of cell suspension (cells+supernatant) was added to a 15 mL centrifuge tube (HOX9910B, 305 g cells/liter wet weight, 1.6 U/ml extracellular HOX activity). Cells were separated by centrifugation at 4000 g for 10 min. Cells were then re-suspended in 4.0 mL 25 mM citric acid, pH 6.3 supplemented with either CTAB, emulsifiers SLL, YN, capric acid, lysolecithin, or lecithin. The cells were then incubated for 20 hours at 25° C. (500 rpm).

[2] = test system: cell suspension (HOX9926-7); assay: Extraction of HOX by CTAB combined with salts and at different temperatures; assay type: cell-based, Hansenula polymorpha; details: for HOX activity, %: 26 h, 25°C, control = 100
Experimental: In order to examine the mechanism of the CTAB effect, CTAB was combined with chaotrophic and nonchaotrophic salts. Five mL cell suspension (cells+supernatant) was added to a 15 mL centrifuge tube (HOX9926-7, 317 g cells/liter wet weight, 0.3 U/mL extracellular HOX activity). Cells were separated by centrifugation at 4000 g for 10 min. The supernatant was then supplemented with either CTAB, CTAB+NaCl, CTAB+urea, CTAB+ammonium sulphate, or the non-ionic detergent, octyl-glucoside. The cells were then re-suspended in 4.0 mL supernatant and incubated for 26 hours at 25° C. (500 rpm). In this experiment, the effect of shaking and temperature was also investigated. After incubation, the cell-free extract was used to estimate HOX activity using the HOX assay as outlined in Example 4.

Hansenula polymorpha [3] = assay: HOX extraction with CTAB compared to Triton X-100; assay type: cell-based; details: for HOX activity: 22 h, 25°C, 200 rpm, control ferment 1.2
Experimental: CTAB or Triton X-100 was added to 5 mL of ferment, (sample HOX9954, Mut 45, 18.10.99, HVP) in a centrifuge tube. Water was added to the control. The samples were incubated at 25° C. for 22 h at 200 rpm. After incubation the samples were centrifuged and the supernatant was analyzed for HOX activity as previously described.

Hansenula polymorpha [4] = assay: HOX extraction with different quaternary ammonium compounds; assay type: cell-based; details: final concentration 0.4% (w/v); 24 h, 25°C, 200 RPM; LTAB = 100
Experimental: Several quaternary ammonium compounds were tested with respect to extraction of the intracellular HOX enzyme from Hansenula polymorpha. A sample of fermentation broth was withdrawn from a 6 L scale fermentation where the biomass concentration was approximately 340 g wet weight per L. One mL of a 4% (w/v) solution of each of the quaternary ammonium compounds listed in Table 8 was added to 9 mL of fermentation broth in plastic tubes. After 24 h of incubation at 25° C. at 200 RPM the tubes were centrifuged 10 min. at 12000 g. The supernatants were analysed for HOX activity using the HOX assay as previously described.

Hansenula polymorpha [5] = assay: Time course of HOX extraction with CTAB, LTAB and CTAC; assay type: cell-based; details: 25°C
Experimental: The time course of HOX extraction was studied with CTAB, LTAB and CTAC. A fermentation sample containing 280 g wet weight of Hansenula polymorpha per L was withdrawn from the fermentor. A 4% (w/v) solution of CTAB, LTAB and CTAC was added to a final concentration of 0.2 or 0.4% (w/v) to plastic tubes containing 9 mL of fermentation broth. After 0, 7, 17, 24, and 48 h of incubation at 25° C. at 200 RPM the tubes were centrifuged 10 min. at 12000×g. The supernatants were analysed for HOX activity using the HOX assay as previously described.

[6] = test system: Pichia pastoris strain #349; assay: HOX extraction with LTAB from Pichia pastoris; assay type: cell-based; details: 180 μL of 10% (w/v) LTAB in 9 mL broth; 24 h, 30°C; control = 100
Experimental: The extracting effect of LTAB was tested on the Pichia pastoris strain #349 that produces HOX intracellularly. A sample of fermentation broth was withdrawn from a 6 L scale fermentation where the biomass concentration was approximately 232 g wet weight per L. Nine mL of fermentation broth was added to plastic tubes together with 0 (control) or 180 μL of a 10% (w/v) solution of LTAB. After 24 h of incubation at 30° C. at 20 RPM the tubes were centrifuged 5 min. at 9000 g. The supernatants were analysed for HOX activity using the HOX assay as previously described.

H. polymorpha = assay: Comparison of mechanical and LTAB recovery of glucan lyase (DNS method); assay type: cell-based, Hansenula polymorpha; details: induced cells, transformants 2 and 8; 0.2% LTAB versus Mini Bead-Beater
Experimental: The cells are resuspended in 5 mM sodium acetate pH=5.5 with 0.2% LTAB at 30% wet biomass in order to lyse the cells and release the intracellular glucan lyase.
The tubes are incubated over night with shaking at 37° C. The cells are harvested by centrifuging at 4000 rpm in 10 minutes and the glucan lyase activity is determined in the cell-free extract and in the pellet. This is done to check if LTAB had opened the cells successfully before starting the purification of glucan lyase.
Two transformants that expressed a high level of glucan lyase (transformant number 2 and 8) are grown at 24° C.
To compare the specific activity under repressed and induced conditions samples are collected when the cells are grown in YND+2% glucose (repressed) and in YND+1% glycerol with 1% methanol added on the second day of growth (induced).
The assay is performed as described in S. Yu et al., 1998. The red colour indicates glucan lyase activity is much stronger when the induced cells are opened with LTAB compared with opening of the cells mechanically on a Mini Bead-Beater (E1-E12 compared with C1-C12). […] When the cells are grown in YND+2% glucose a very low specific activity is observed as expected since the FMD promoter is repressed in this media. […] The assay detected a quite high glucan lyase activity in the pellet.

[7] = Determination of LTAB by LC-ESI-MS (optimised method) in fermentation supernatants; details: 0.20% (w/v) LTAB added
Experimental: The analysis method for the quaternary ammonium compounds was optimised by using a different column, and by using different mobile phase. Two 90 L scale fermentations (Vest0002b with a biomass concentration of 314 g/L wet cells and Vest0003b with a biomass concentration of 332 g/L wet cells) were added LTAB to a concentration of 0.20% (w/v), and HOX was extracted for 24 h. A sample from each fermentation was centrifuged at 10000 g for 10 minutes, and the resulting supernatants were withdrawn for LTAB analysis. The following method was used to quantify the LTAB content in the supernatants by means of LC-ESI-MS on a Hewlett-Packard 1100 HPLC-MS system consisting of the following units:
The system was equipped with a PLRP-S, 100 Å, 5 μm, 250×4.6 […] id. (Polymer Laboratories) column. Column temperature was 25° C.
The chromatographic conditions were a mobile phase consisting of 0.1% heptafluorobutyric acid in methanol. The column was run with a solvent flow rate of 1.00 mL/min and an injection volume of 5 μL. The samples were diluted 25 fold with methanol and filtered through Gelman GHP Acrodisc 13 mM Minispike […] before injection.
The detector settings were the following: SIM parameters: m/z 228.1 (lauroyltrimethylammonium cation). […]

[8] = 0.5% in 25 mM citric acid pH 6.3
[9] = 1.0% in 25 mM citric acid pH 6.3
[10] = 0.4% in 25 mM citric acid pH 6.3

**Q.** With `CCCCCCCCCCCC(=O)OC(C)C(=O)OC(C)C(=O)[O-].[Na+]` (stereo not shown) [emulsifier SSL, Sodium Lauroyl Lactylate] as the molecule, how does the “HOX activity, %” value [1, 8] read?
**A.** Its value is 160%.

**Q.** What about the “HOX activity, %” value [1, 9] of the same molecule?
**A.** The value was 140%.

**Q.** Which results are given for `CCCCCCCCO[C@@H]1O[C@H](CO)[C@@H](O)[C@H](O)[C@H]1O` [octyl-glycoside, octyl-glucoside]?
**A.** extracting effect on HOX ([2]; 0.2% and 0.4%): no significant extracting effect; HOX activity, % ([2]; 0.2%): 130%; HOX activity, % ([2]; 0.4%, 500 rpm): 190%

**Q.** What does the source list for “polyethoxylated octylphenol [Triton X-100]”?
**A.** HOX activity (Hansenula polymorpha [3]; 0.1%): 1.5 U/mL; extracting effect on HOX (Hansenula polymorpha [3]; 0.1-1.0%): no extracting effect; HOX activity (Hansenula polymorpha [3]; 0.2%): 1.6 U/mL; HOX activity (Hansenula polymorpha [3]; 0.4%): 1.8 U/mL; HOX activity (Hansenula polymorpha [3]; 0.6%): 1.9 U/mL; HOX activity (Hansenula polymorpha [3]; 1.0%): 1.9 U/mL

**Q.** Which “Extracted HOX activity normalised with extracted amount with LTAB” value (“Extracted HOX activity normalised … with LTAB” for short) (Hansenula polymorpha [4]) does the source give for `CCCCCCCCCCCCCC[N+](C)(C)C.[Cl-]` [MTAC, Myristyl Trimethyl Ammonium Chloride] here?
**A.** The value was 71.

**Q.** Which “Extracted HOX normalised to 0.4% (w/v) LTAB after 48 h” value (Hansenula polymorpha [5]; 0.2% (w/v), 0 h) does the source give for “Lauroyl Trimethyl Ammonium Bromide [LTAB]” here?
**A.** Its value is 5.

**Q.** What about the “Extracted HOX normalised to 0.4% (w/v) LTAB after 48 h” value (Hansenula polymorpha [5]; 0.2% (w/v), 7 h) of the same molecule?
**A.** The value was 15.

**Q.** What about the “Extracted HOX normalised to 0.4% (w/v) LTAB after 48 h” value (Hansenula polymorpha [5]; 0.2% (w/v), 17 h) of the same molecule?
**A.** The value was 49.

**Q.** And the “Extracted HOX normalised to 0.4% (w/v) LTAB after 48 h” value (Hansenula polymorpha [5]; 0.2% (w/v), 24 h)?
**A.** The value was 65.

**Q.** What about the “Extracted HOX normalised to 0.4% (w/v) LTAB after 48 h” value (Hansenula polymorpha [5]; 0.2% (w/v), 48 h) of the same molecule?
**A.** Its value is 78.

**Q.** What about the “Extracted HOX normalised to 0.4% (w/v) LTAB after 48 h” value (Hansenula polymorpha [5]; 0.4% (w/v), 0 h) of the same molecule?
**A.** The value was 6 ± 1,.

**Q.** And the “Extracted HOX normalised to 0.4% (w/v) LTAB after 48 h” value (Hansenula polymorpha [5]; 0.4% (w/v), 7 h)?
**A.** Its value is 25.

**Q.** And the “Extracted HOX normalised to 0.4% (w/v) LTAB after 48 h” value (Hansenula polymorpha [5]; 0.4% (w/v), 17 h)?
**A.** Its value is 74.

**Q.** What about the “Extracted HOX normalised to 0.4% (w/v) LTAB after 48 h” value (Hansenula polymorpha [5]; 0.4% (w/v), 24 h) of the same molecule?
**A.** Its value is 83 ± 8,.

**Q.** And the “Extracted HOX normalised to 0.4% (w/v) LTAB after 48 h” value (Hansenula polymorpha [5]; 0.4% (w/v), 48 h)?
**A.** Its value is 100 ± 25,.

**Q.** And the “Extracted HOX activity normalised to the control tube without LTAB” value [6]?
**A.** Its value is 3000^c.

**Q.** And the “Extracted HOX activity normalised … with LTAB” value (Hansenula polymorpha [4])?
**A.** Its value is 100.

**Q.** What about the “specific activity of glucan lyase, LTAB-treated cells versus mechanical opening” value (H. polymorpha) of the same molecule?
**A.** Its value is roughly 60 fold.

**Q.** What about the “share of the added LTAB found in the cell free fraction” value [7] of the same molecule?
**A.** The value was “about 27%”.

**Q.** Which “HOX activity, %” value [1, 10] does the source give for 3-sn-phosphatidylcholine [lecithin] here?
**A.** Its value is 140%.

**Q.** Which “HOX activity, %” value [1, 10] does the source give for lysophosphatidylcholine [lyso-lecithin] here?
**A.** Its value is 260%.

**Q.** With `CCCCCCCCCC(=O)O` [capric acid, decanoic acid] as the molecule, how does the “HOX activity, %” value [1, 8] read?
**A.** Its value is 120%.

**Q.** And the “HOX activity, %” value [1, 9]?
**A.** Its value is 140%.

**Q.** Which “Extracted HOX activity normalised … with LTAB” value (Hansenula polymorpha [4]) does the source give for `CCCCCCCCCCCCCCCCCC(=O)[N+](C)(C)C.[Br-]` [STAB, Stearoyl Trimethyl Ammonium Bromide] here?
**A.** The value was 38.
